# Source: patent US20210128645A1, “INTESTINAL MICROBE HAVING D-PSICOSE-RESPONSIVE PROLIFERATION” (priority 2018, published 2021)
# Columns and labels:
# [1] = test system: male C57BL/6J mice fed a high-fat diet; test: High-fat diet mouse experiment with D-psicose drinking water: body weight gain and fasting blood glucose; type: in vivo
# Procedure: Eight-week-old (week 0) male C57BL/6J mice (total 4 groups, n=7) were fed a high-fat diet and tap water (control) or D-psicose-containing water, or antibiotics in addition to these (Control+Abx, D-psicose+Abx). During the experimental period, the body weight of the mice, the water intake, and the food intake were measured weekly, and the feces were collected. The samples at weeks 0 and 5 were used for analysis. The fasting blood glucose level was measured at week 9. The mice were dissected after 11 weeks.
# The average (g) of the body weight gain at week 5 (13 weeks old) from start of rearing (8 weeks old) is shown (n =7). The error bars represent standard deviations (SDs). Control (white): high-fat diet+tap water, D-psicose (black): high-fat diet +5.0% D-psicose, Abx−: without antibiotic treatment, Abx+: with antibiotic treatment. The antibiotics were 0.1% ampicillin sodium, 0.1% neomycin sulfate, and 0.05% vancomycin hydrochloride. The Student's t-test was used in significance testing. A p-value of 0.05 or less is considered significant and indicated by*in the figure.
# The 15-hour fasting blood glucose level (mg/dl) at week 9 after start of rearing is shown (n=7). The error bars represent standard deviations (SDs). Control (white): high-fat diet+tap water, D-psicose (black): high-fat diet +5.0% D-psicose, Abx−: without antibiotic treatment, Abx+: with antibiotic treatment. The antibiotics were 0.1% ampicillin sodium, 0.1% neomycin sulfate, and 0.05% vancomycin hydrochloride. The Student's t-test was used in significance testing. A p-value of 0.05 or less is considered significant and indicated by*in the figure.
# (§1) Twenty eight 6-week-old male C57BL/6J mice (CLEA Japan, Inc.) were provided and fed a normal diet CE-2 (CLEA Japan, Inc.) and tap water for 2 weeks, followed by acclimation. The mice were divided into 4 groups (7 mice per group): (i) tap water-administered group, (ii) D-psicose water-administered group, (iii) tap water and antibiotic-administered group, and (iv) D-psicose water and antibiotic-administered group. The experiment was started at 8 weeks old. For food, the mice in all groups were freely fed a high-fat diet HFD32 (CLEA Japan, Inc.). […] During the experimental period, the body weight of the mice, the water intake, and the food intake were measured weekly, and the feces were collected. […] At week 9 (17 weeks old) from the start of the experiment, the fasting blood glucose level, an indicator of diabetes, was measured. After 15-hour fasting, the side of the tail was pricked with a syringe needle (Terumo Corporation), and the blood glucose level was measured by using a glucometer (Nipro StatStrip XP3). […]
# [2] = test system: genus Atopobium (intestinal microbe, SEQ ID NO:1 OTU); test: 16S rRNA gene analysis of intestinal microbiota in fecal samples of D-psicose-administered mice; type: in vivo, mouse; details: 5.0% D-psicose water, high-fat diet, fecal samples at week 5, vs tap water control (FIG. 4)
# Procedure: The relative abundance of the genus Atopobium in the fecal samples at week 5 from start of rearing is shown. The relative abundance is calculated as the percentage of the genus Atopobium in the total reads. Control (white): high-fat diet+tap water, D-psicose (black): high-fat diet +5.0% D-psicose. The Mann-Whitney U test was used in significance testing. A p-value of 0.001 or less is considered significant and indicated by P<0.001: in the figure.
# as §1, with “old.” for “old. For food, the mice in all groups were freely fed a high-fat diet HFD32 (CLEA Japan, Inc.).”
smiles,measurement,setting,value
O=C(CO)[C@H](O)[C@H](O)[C@H](O)CO [D-psicose],body weight gain due to the intake of high-fat diet,"[1]; 5.0% (w/v) D-psicose in drinking water, without antibiotic treatment, week 5, vs tap water control (FIG. 2)",significantly suppresses the body weight gain
same,suppression of body weight gain,"[1]; 5.0% D-psicose water plus antibiotics (0.1% ampicillin sodium, 0.1% neomycin sulfate, 0.05% vancomycin hydrochloride), intestinal microbes removed (FIG. 2)",not observed
same,"fasting blood glucose level, difference between groups","[1]; 5.0% D-psicose water plus antibiotics vs tap water plus antibiotics, 15-hour fasting, week 9 (FIG. 3)",no significant difference
same,fasting blood glucose level,"[1]; 5.0% D-psicose water, without antibiotics, 15-hour fasting, week 9, vs tap water control (FIG. 3)",significantly reduces the blood glucose level
same,"growth (relative abundance) of the intestinal microbe, genus Atopobium, in feces",[2],significantly grows
